Measured values as given in patent US20180105876A1, “MEDICATION DOSING REPORT” (BAYCREST TECHNOLOGY PTY LTD, priority 2015, published 2018).

System: patients suffering major depressive disorder
Assay: open-label desvenlafaxine treatment of MDD outpatients, HDRS assessed every two weeks
Type: in vivo, human
Experimental: A […] clinical trial was performed to examine the clinical validity of a five gene, combinatorial, pharmacogenetic-based antidepressant dosing support tool for desvenlafaxine dosing. Participants were self-identified Caucasian outpatients aged 18 years and older with a principal DSM-5 diagnosis of MDD (semi-structured psychiatrist assessment) and a 17-item Hamilton Depression Rating Scale (HDRS) score greater than or equal to 18. Participants with other active psychiatric diagnoses were excluded, specifically those suffering with adjustment disorder with depressed mood, persistent depressive disorder, and subjects with a principal clinical diagnosis of a personality disorder. Additional exclusion criteria included pregnancy or breastfeeding, hepatic or renal impairments, co-prescription of known UGT1A1 or ABCB1 inducers/inhibitors (e.g. St John's Wort, valproic acid), regular grapefruit juice consumption, and current smoking which may influence appropriate dosing. A total of 131 individuals were screened for eligibility criteria. […] All participants received desvenlafaxine in an open-label manner during the 10-week study period. At baseline, age, sex, duration of the current depressive episode, and number of depressive episodes was recorded. […] Symptom severity was assessed at baseline and every two-weeks thereafter during the study period with the HDRS. […]

SMILES: CN(C)CC(c1ccc(O)cc1)C1(O)CCCCC1 (centres unmarked) [desvenlafaxine]
- participants achieved symptom remission (HDRS score of 7 or less by week 10) (after 10 weeks of desvenlafaxine treatment, 119 MDD participants, dose adjusted every two weeks): 80%
- greater than 50% reduction in HDRS from baseline (among the 24 participants who did not achieve symptom remission by week 10): 42%
